Experiment [1] has as its system COLO 205. Briefly: Cytotoxicity against human COLO205 cells after 24 hrs by MTT assay. The experiment is classed as functional, cell-based. Conditions: COLO 205, 24 h. (Tetrazolium dyes change colour on reduction, which living cells bring about.)
The subject of experiment [2] is MDA-MB-231. Briefly: Cytotoxicity against human MDA-MB-231 cells after 24 hrs by MTT assay. Conditions: MDA-MB-231, 24 h. The class given is functional, cell-based.
The test system of experiment [3] is K562. Briefly: Cytotoxicity against human K562 cells after 24 hrs by MTT assay. The class given is functional, cell-based. The note with it: K562, 24 h.
The target in experiment [4] is T1, NAD-dependent protein deacetylase sirtuin-1 (Homo sapiens) (UniProt Q96EB6).
T1 sequence (whole entry): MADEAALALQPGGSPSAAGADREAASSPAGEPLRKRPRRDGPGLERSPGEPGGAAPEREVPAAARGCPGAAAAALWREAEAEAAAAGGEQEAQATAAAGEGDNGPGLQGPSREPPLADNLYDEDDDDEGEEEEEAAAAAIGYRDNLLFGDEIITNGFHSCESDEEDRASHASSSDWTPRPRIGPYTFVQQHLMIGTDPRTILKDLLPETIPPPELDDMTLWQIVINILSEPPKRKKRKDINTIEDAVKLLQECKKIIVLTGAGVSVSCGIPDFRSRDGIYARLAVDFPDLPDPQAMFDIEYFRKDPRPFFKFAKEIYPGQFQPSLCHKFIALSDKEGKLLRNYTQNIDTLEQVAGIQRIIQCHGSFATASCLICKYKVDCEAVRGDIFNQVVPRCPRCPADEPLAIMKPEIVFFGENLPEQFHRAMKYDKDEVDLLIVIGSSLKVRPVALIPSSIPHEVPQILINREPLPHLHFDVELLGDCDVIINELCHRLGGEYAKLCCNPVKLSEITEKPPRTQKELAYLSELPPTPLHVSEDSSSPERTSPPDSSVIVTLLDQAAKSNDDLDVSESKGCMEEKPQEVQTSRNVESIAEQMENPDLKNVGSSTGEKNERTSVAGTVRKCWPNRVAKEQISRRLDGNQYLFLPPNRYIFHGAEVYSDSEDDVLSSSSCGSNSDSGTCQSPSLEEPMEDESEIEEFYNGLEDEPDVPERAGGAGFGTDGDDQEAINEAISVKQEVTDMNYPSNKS
Description: Inhibition of human Sirt1 at 10 uM using fluorophore-labelled peptide as substrate measured after 15 mins by fluorescence assay relative to control.

The structures appear in SMILES notation.

Consider `CCc1ccc(C(=O)NC(Cc2ccccc2)C(=O)N2CCN(C3=Nc4ccccc4Sc4ccccc43)CC2)cc1` (configuration not stated), for which the IC50 in experiment [1] is 25 µM; in experiment [2] it was 44 µM; in experiment [3], 21 µM.
The matching figures for `Cc1ccc(C(=O)NC(Cc2ccccc2)C(=O)N2CCN(C3=Nc4ccccc4Sc4ccccc43)CC2)cc1I` (configuration not stated): 45 µM, 59 µM and 36 µM.
On to `O=C(NC(Cc1ccccc1)C(=O)N1CCN(C2=Nc3ccccc3Sc3ccccc32)CC1)c1ccoc1` (configuration not stated), for which the inhibition in experiment [4] worked out at 51%. Further, the IC50 is 14 µM in experiment [1], 37 µM in experiment [2] and 17 µM in experiment [3].
For `COC(=O)CCCC(=O)NC(Cc1ccccc1)C(=O)N1CCN(C2=Nc3ccccc3Sc3ccccc32)CC1` (configuration not stated), the IC50 was found to be 28 µM in experiment [1], 64 µM in experiment [2] and 19 µM in experiment [3].
On to `Cc1ccc(C(=O)NC(Cc2ccccc2)C(=O)N2CCN(C3=Nc4ccccc4Sc4ccccc43)CC2)c(C)c1` (configuration not stated), for which the 50% inhibitory concentration (IC50) in experiment [1] worked out at 40 µM; in experiment [2], 37 µM; in experiment [3], 35 µM.
As to `CC(=O)CCCC(=O)NC(Cc1ccccc1)C(=O)N1CCN(C2=Nc3ccccc3Sc3ccccc32)CC1` (configuration not stated), the IC50 turned out to be 33 µM in experiment [1], 52 µM in experiment [2] and 32 µM in experiment [3].
Take `O=C(NC(Cc1ccccc1)C(=O)N1CCN(C2=Nc3ccccc3Sc3ccccc32)CC1)c1ccc(OC(F)F)cc1` (configuration not stated): the inhibition in experiment [4] was determined as 71%. Besides, the IC50 in experiment [1] was 10 µM; in experiment [2], 39 µM; in experiment [3] it was 12 µM.
As for `O=C(NC(Cc1ccccc1)C(=O)N1CCN(C2=Nc3ccccc3Sc3ccccc32)CC1)c1ccc(I)cc1` (configuration not stated), the IC50 in experiment [1] amounted to 28 µM; in experiment [2] it was 55 µM; in experiment [3], 26 µM.
The matching figures for `Cc1ccc(C(=O)NC(Cc2ccccc2)C(=O)N2CCN(C3=Nc4ccccc4Sc4ccccc43)CC2)cn1` (configuration not stated): 34 µM, 54 µM and 39 µM.
Regarding `CS(=O)(=O)c1ccc(CC(=O)NC(Cc2ccccc2)C(=O)N2CCN(C3=Nc4ccccc4Sc4ccccc43)CC2)cc1` (configuration not stated), the IC50 in experiment [1] was 32 µM; in experiment [2] it was 56 µM; in experiment [3], 28 µM.
In experiment [4], `Cc1ccc(C)c(C(=O)NC(Cc2ccccc2)C(=O)N2CCN(C3=Nc4ccccc4Sc4ccccc43)CC2)c1` (configuration not stated) returned an inhibition of 54%. The IC50 in experiment [1] turned out to be 12 µM; in experiment [2] it was 34 µM; in experiment [3] it was 16 µM.
Turning to `CCN(CC)CCNC(=O)c1c(C)[nH]c(/C=C2\C(=O)Nc3ccc(F)cc32)c1C` [SUNITINIB], the IC50 in experiment [1] stood at 8 µM; in experiment [2], 32 µM; in experiment [3], 14 µM.
In the case of `CC(C)(C(=O)NC(Cc1ccccc1)C(=O)N1CCN(C2=Nc3ccccc3Sc3ccccc32)CC1)c1ccc(C(=O)C2CC2)cc1` (configuration not stated), the inhibition in experiment [4] amounted to 44%. For the same molecule, the IC50 in experiment [1] is 17 µM; in experiment [2] it was 34 µM; in experiment [3], 14 µM.
`O=C(Cc1ccc2c(c1)OCO2)NC(Cc1ccccc1)C(=O)N1CCN(C2=Nc3ccccc3Sc3ccccc32)CC1` (configuration not stated): the IC50 was 24 µM in experiment [1], 52 µM in experiment [2] and 35 µM in experiment [3].
The matching figures for `N#Cc1ccc(C(=O)NC(Cc2ccccc2)C(=O)N2CCN(C3=Nc4ccccc4Sc4ccccc43)CC2)cc1` (configuration not stated): 29 µM, 61 µM and 24 µM.
In turn, `O=C(NC(Cc1ccccc1)C(=O)N1CCN(C2=Nc3ccccc3Sc3ccccc32)CC1)c1cnccn1` (configuration not stated) showed an inhibition in experiment [4] of 62%. Moreover, the figures for the IC50 in experiment [1], in experiment [2] and in experiment [3] were 15 µM, 38 µM and 16 µM, respectively.
As to `CCOC(=O)CCCC(=O)NC(Cc1ccccc1)C(=O)N1CCN(C2=Nc3ccccc3Sc3ccccc32)CC1` (configuration not stated), the IC50 was 36 µM in experiment [1], 48 µM in experiment [2] and 20 µM in experiment [3].
The matching figures for `Cc1ccc(Br)cc1C(=O)NC(Cc1ccccc1)C(=O)N1CCN(C2=Nc3ccccc3Sc3ccccc32)CC1` (configuration not stated): 16 µM, 49 µM and 27 µM.
For `O=C(CCc1cccc(Cl)c1)NC(Cc1ccccc1)C(=O)N1CCN(C2=Nc3ccccc3Sc3ccccc32)CC1` (configuration not stated), in that order: 16 µM, 59 µM and 27 µM.

As usually defined, the IC50 is the point on the concentration scale where inhibition reaches its midpoint. Higher therefore signals a need for much substance. The term inhibition denotes the percentage by which the read-out fell short of the control. A low value points to a weak effect.
